# What was measured:
# [1] = biological target: T1, I-125-GRP binding to NIH-3T3 cells (Mus musculus, UniProt P21729); experiment: In vitro receptor binding assay: inhibition of binding of I-125-GRP to NIH-3T3 cells; design: species or system Murine; settings: for IC50: […] 125I-GRP, 30 min RT, read-out: IC50, inhibition of binding of labeled GRP to NIH-3T3 cells; for Binding of competing ligand relative to control ligand Neuromedin C: competition with 125I-GRP
# T1 construct: Murine NIH-3T3 fibroblast cells (ATCC No. CCL92) were released from flasks; endogenous in cells; host or cells: NIH-3T3 murine fibroblasts (ATCC No. CCL92), whole cells
# T1 sequence (P21729 whole entry): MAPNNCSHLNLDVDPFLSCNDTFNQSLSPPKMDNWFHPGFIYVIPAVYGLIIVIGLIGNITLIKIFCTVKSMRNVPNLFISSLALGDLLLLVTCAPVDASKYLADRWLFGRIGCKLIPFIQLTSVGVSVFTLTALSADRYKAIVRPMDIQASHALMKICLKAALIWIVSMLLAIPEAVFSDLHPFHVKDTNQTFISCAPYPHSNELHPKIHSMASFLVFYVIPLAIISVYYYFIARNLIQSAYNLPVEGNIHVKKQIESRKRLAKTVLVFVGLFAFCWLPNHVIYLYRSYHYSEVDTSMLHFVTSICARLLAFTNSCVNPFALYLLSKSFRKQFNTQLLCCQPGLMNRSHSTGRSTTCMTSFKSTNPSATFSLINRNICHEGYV
# Description: Murine NIH-3T3 fibroblast cells (ATCC No. CCL92) were released from flasks with EDTA harvest buffer, consisting of 0.6 mm EDTA, 25 mm PBS (8 g NaCl, 0.2 g KCl, 1.44 g Na2 PO4, 0.2 g KH2 PO4 per liter), pH 7.4, 37° C., by incubation for 15 min.
# The cells were washed twice with Assay Buffer (50 mM Tris-HCl, 100 mM NaCl, 0.1% BSA, 0.1 mg/mL bacitracin, 0.05 mg/mL aprotinin, 1 mM PMSF), pH 7.4, 4° C. and resuspended at a density of 3×10^6 cells/mL.
# A 0.5 mL Eppendorf tube was prepared for each assay point by incubating the tube overnight with a blocking solution of 1% BSA, 50 mM Tris. HCl, 100 mM NaCl, pH 7.4. The blocking solution was removed.
# Each tube was charged with 4×10^4 cells. […] Three control tubes with no cells or competitor were prepared for measurement of total counts added.
# The samples were incubated for 30 min at RT. The contents of each tube were transferred into the wells of a 96-well filter bottom plate (Millipore Multiscreen, Arlington Heights, Mass.) and filtered under moderate vacuum (water aspirator). Each filter was washed three times by filling each well with ice cold PBS, Ph 7.4, 0.1% BSA. The plate was allowed to dry. Dried filters were placed into gamma-counter tubes (12×75 mm glass). The radioactivity on each filter and in the control tubes was counted using a LKB gamma counter. The bound/total added for each assay tube was calculated.
# [2] = system: HT-29 colon carcinoma xenograft tumors; settings: Tc-99m labeled, i.v., 22 hours after injection
# Description: Biodistribution and imaging studies were conducted using female Nu/Nu HT-29 xenograft tumor-bearing mice, a model for colon carcinoma. […] Two μg of the test compounds were labeled with 100 μCi of Tc-99m and each was injected into 10 Nu/Nu mice bearing HT-29 tumors on the flank. The organs of interest were removed from half the mice at 3 hr, and the organs of the remaining mice were removed at 22 h. Each set of organs were counted for gamma radiation.
# Twenty μg of each construct was dissolved in 20 mM sodium acetate, pH 4.5, at a minimum concentration of 30 μg/mn. The pH was checked and adjusted as necessary. A 50 mCi vial of ^99m TcO4 Na (Syncor) was added to a vial of Glucoscan® (Dupont) in a leaded glass shield using a shielded tuberculin syringe. 100 μL of the resulting solution was dose calibrated, and the volume required for 20 doses of 100 μCi was calculated (ca. 40-45 μL). This amount was divided into two equal parts and added to the two solutions of construct in microfuge tubes and incubated for 1 h at 37° C. Percent chelation was checked by chromatography on ITLC developed with 0.9% saline, and analyzed by autoradiography counter. The two solutions were diluted to 2.2 mL each with 0.9% saline. The diluted solutions werethen divided into numbered tuberculin syringes (200 μL each). […]
# Dissected tissues were weighed, and their content of Tc-99m was determined by gamma counting.
Substance,IC50 [1] [nM],Binding of competing ligand relative to control ligand Neuromedin C [1],Localization to HT-29 tumors [2]
Benzoic acid bis-thiosemicarbazide derived from N-acetyl-Neuromedin C-hydrazide [Compound 6],43.3,within an order of magnitude of the control ligand Neuromedin C,evident
Benzoic acid bis-thiourea derived from Neuromedin-C [Compound 3],10.6,within an order of magnitude of the control ligand Neuromedin C,evident

# Reference: patent US5593656A, “Metal-binding targeted polypeptide constructs” (Cytogen Corporation, priority 1995, dated 1997)
